For one experiment, the target named is Flt3(h) (Homo sapiens, UniProt P36888). In words: Protein kinase inhibition assay. It is filed as biochemical. To be noted: read-out: percent residual activity of Flt3(h). How it is done:
(§1) Certain compounds were tested for activity in protein kinase inhibition assays. All substrates were dissolved and diluted to working stocks in de-ionized water, apart from histone H1 (10× working stock in 20 mM MOPS pH 7.0), PDKtide (10× working stock in 50 mM Tris pH 7.0) ATF2 (which is typically stored at a 20× working stock in 50 mM Tris pH 7.5, 150 mM NaCl, 0.1 mM EGTA, 0.03% Brij-35, 50% glycerol, 1 mM benzamidine, 0.2 mM PMSF and 0.1% R-mercaptoethanol), KKLNRTLSFAEPG (SEQ ID NO:203) and RRRLSFAEPG (SEQ ID NO:204) (50 mM HEPES pH 7.4) and GGEEEEYFELVKKKK (SEQ ID NO:205) (20 mM MOPS pH 7.0). All kinases were pre-diluted to a 10× working concentration prior to addition into the assay. The composition of the dilution buffer for each kinase is detailed below.
(§2) In a final reaction volume of 25 μl, Flt3 (h) (5-10 mU) is incubated with 8 mM MOPS pH 7.0, 0.2 mM EDTA, 50 μM EAIYAAPFAKKK (SEQ ID NO:206), 10 mM MgAcetate and [gamma-33P-ATP] (specific activity approx. 500 cpm/pmol, concentration as required). The reaction is initiated by the addition of the MgATP mix. After incubation for 40 minutes at room temperature, the reaction is stopped by the addition of 5 μl of a 3% phosphoric acid solution. 10 μl of the reaction is then spotted onto a P30 filtermat and washed three times for 5 minutes in 75 mM phosphoric acid and once in methanol prior to drying and scintillation counting.

The target of the next experiment is Syk(h) (Homo sapiens, UniProt P43405). Briefly: Protein kinase inhibition assay. It counts as biochemical. To be noted: read-out: percent residual activity of Syk(h). How it is done: as §1
In a final reaction volume of 25 μl, Syk (h) (5-10 mU) is incubated with 50 mM Tris pH 7.5, 0.1 mM EGTA, 0.1 mM Na3VO4, 0.1% R-mercaptoethanol, 0.1 mg/ml poly(Glu, Tyr) 4:1, 10 mM MgAcetate and [gamma-33P-ATP] (specific activity approx. 500 cpm/pmol, concentration as required). The reaction is initiated by the addition of the MgATP mix. After incubation for 40 minutes at room temperature, the reaction is stopped by the addition of 5 μl of a 3% phosphoric acid solution. […]

For a further experiment, the target named is MLCK(h) (Homo sapiens, UniProt Q9H1R3). Briefly: Protein kinase inhibition assay. It is filed as biochemical. To be noted: read-out: percent residual activity of MLCK(h). As to the method:
as §1
In a final reaction volume of 25 μl, MLCK (h) (5-10 mU) is incubated with 8 mM MOPS pH 7.0, 0.2 mM EDTA, 0.5 mM CaCl2, 16 μg/ml calmodulin,250 μM KKLNRTLSFAEPG (SEQ ID NO:203), 10 mM MgAcetate and [gamma-33P-ATP] (specific activity approx. 500 cpm/pmol, concentration as required). The reaction is initiated by the addition of the MgATP mix. After incubation for 40 minutes at room temperature, the reaction is stopped by the addition of 5 μl of a 3% phosphoric acid solution. […]

The next experiment concerns the target CDK1/cyclinB(h) (Homo sapiens, UniProt P06493). In words: Protein kinase inhibition assay. It is filed as biochemical. To be noted: read-out: percent residual activity of CDK1/cyclinB(h). As to the method: as §1
as §2, with “CDK1/cyclinB” for “Flt3”, “0.1 mg/ml histone H1,” for “50 μM EAIYAAPFAKKK (SEQ ID NO:206),”

The target in the next experiment is NEK2(h) (Homo sapiens, UniProt P51955). In words: Protein kinase inhibition assay. It is filed as biochemical. To be noted: read-out: percent residual activity of NEK2(h). How it is done:
as §1
as §2, with “NEK2” for “Flt3”, “0.33 mg/ml myelin basic protein,” for “50 μM EAIYAAPFAKKK (SEQ ID NO:206),”

Experiment [1] concerns c-myc mRNA in HCT116 cells. Briefly: RNA Polymerase II-dependent RNA synthesis (c-myc mRNA, Taqman qRT-PCR). To be noted: at the tested concentrations. It counts as cell-based. As to the method: Effects of compound A-1 and compound B-1 on DNA synthesis, RNA synthesis and protein synthesis were determined in HCT116 cells. HCT116 cells were plated overnight at 100,000 cells per mL. Next day cells were treated with increasing amounts of either compound A-1 or compound B-1 followed by one hour incubation with BrdU label (from a BrdU Cell proliferation Assay Kit, Calbiochem) to monitor DNA synthesis; […] of ^3H-uridine to monitor total RNA synthesis; […] of ^3H-methionine to monitor protein synthesis or plain media to monitor RNA Polymerase II-dependent RNA synthesis. DNA synthesis was assessed using a BrdU-ELISA (BrdU Cell proliferation Assay Kit, Calbiochem). To measure total RNA synthesis, total RNA from treated cells was isolated with a RNease kit (QIAGEN), levels of total RNA were assessed with Ribogreen reagent (Invitrogen) and the newly synthesized tritiated RNA was measured in a scintillation Counter (Perkin Elmer). To measure effects on protein synthesis, cells were lysed in a RIPA buffer, and total protein was precipitated with 10% TCA on a glass-filters. Newly synthesized tritiated protein was measured in a scintillation Counter (Perkin Elmer). Effects of drugs on […] RNA synthesis were assessed by monitoring levels of a c-myc mRNA, which has a relatively short half-life of approximately 30 minutes, by Taqman qRT-PCR (ABI).
In general terms: Quantitative PCR measures a nucleic acid by following its amplification.

Sequence of CDK1/cyclinB(h) (P06493 whole entry): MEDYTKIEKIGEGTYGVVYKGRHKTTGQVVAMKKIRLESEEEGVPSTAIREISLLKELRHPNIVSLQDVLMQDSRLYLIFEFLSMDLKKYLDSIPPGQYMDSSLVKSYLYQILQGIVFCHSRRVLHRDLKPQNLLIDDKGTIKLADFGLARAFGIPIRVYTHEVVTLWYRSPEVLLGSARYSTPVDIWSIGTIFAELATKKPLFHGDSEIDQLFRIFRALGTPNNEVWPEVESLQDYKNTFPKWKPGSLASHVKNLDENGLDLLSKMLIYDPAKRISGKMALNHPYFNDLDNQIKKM
Sequence of CDK1/cyclinB(h) (P14635 whole entry partner): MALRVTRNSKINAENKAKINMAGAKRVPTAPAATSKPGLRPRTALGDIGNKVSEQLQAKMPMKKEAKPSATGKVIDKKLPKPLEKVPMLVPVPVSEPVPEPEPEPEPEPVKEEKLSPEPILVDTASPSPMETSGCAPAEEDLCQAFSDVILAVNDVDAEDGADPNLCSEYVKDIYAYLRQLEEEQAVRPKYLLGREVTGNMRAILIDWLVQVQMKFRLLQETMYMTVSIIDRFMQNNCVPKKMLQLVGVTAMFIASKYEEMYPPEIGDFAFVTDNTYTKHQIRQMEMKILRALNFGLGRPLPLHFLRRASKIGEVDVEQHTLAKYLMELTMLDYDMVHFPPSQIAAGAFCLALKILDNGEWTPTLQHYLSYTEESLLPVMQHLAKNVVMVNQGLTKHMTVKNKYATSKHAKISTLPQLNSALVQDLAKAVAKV
Sequence of Flt3(h) (P36888 27-993): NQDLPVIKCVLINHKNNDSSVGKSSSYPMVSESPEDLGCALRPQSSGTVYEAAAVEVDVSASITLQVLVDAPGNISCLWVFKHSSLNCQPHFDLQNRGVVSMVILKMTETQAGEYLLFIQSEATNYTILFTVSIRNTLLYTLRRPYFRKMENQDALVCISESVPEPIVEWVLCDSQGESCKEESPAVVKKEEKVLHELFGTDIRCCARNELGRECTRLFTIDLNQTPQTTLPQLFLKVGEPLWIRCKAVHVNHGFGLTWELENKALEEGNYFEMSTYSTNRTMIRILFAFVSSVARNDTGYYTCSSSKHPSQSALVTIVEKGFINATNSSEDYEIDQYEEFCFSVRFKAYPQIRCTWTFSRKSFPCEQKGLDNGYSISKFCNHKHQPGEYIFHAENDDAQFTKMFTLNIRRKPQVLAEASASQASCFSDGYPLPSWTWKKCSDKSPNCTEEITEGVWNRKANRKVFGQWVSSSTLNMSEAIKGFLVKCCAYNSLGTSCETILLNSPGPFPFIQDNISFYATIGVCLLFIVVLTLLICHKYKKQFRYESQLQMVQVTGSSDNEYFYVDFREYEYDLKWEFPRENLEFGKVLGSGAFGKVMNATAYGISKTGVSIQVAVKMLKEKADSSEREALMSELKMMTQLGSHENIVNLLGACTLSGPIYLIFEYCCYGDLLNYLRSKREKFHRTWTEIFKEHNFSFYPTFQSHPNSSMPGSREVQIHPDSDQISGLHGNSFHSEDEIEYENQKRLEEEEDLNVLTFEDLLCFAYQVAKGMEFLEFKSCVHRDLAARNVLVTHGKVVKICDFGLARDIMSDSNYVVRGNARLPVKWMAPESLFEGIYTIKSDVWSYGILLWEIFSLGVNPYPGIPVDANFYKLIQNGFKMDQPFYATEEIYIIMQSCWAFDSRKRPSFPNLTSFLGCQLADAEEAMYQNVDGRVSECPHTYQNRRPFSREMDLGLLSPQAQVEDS
Sequence of NEK2(h) (P51955 whole entry): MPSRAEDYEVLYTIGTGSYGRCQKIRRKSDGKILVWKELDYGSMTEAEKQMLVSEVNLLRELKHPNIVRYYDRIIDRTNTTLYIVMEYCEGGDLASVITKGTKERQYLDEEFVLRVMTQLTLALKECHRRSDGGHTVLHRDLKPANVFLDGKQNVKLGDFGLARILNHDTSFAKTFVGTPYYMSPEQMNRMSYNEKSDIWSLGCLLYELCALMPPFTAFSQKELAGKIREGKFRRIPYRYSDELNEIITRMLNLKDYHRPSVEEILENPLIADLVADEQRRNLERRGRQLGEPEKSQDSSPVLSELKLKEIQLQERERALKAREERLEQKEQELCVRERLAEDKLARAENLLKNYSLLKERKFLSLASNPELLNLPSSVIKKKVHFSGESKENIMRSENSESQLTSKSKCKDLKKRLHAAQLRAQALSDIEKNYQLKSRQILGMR

Consider `CN1CCCC1CCNC(=O)c1cn2c3c(c(N4CCC(c5cnccn5)C4)c(F)cc3c1=O)Oc1cc3ccccc3cc1-2` (stereo not drawn) [Compound A-1], for which the remaining activity at 2.5 µM was 32% on Flt3(h); 67% at Syk(h); 77% on MLCK(h); 84% on CDK1/cyclinB(h); 65% at NEK2(h). The “effect on c-myc mRNA levels” value in experiment [1] is given as “no measureable effect”.
As to `CC(=O)N1CCN(c2ccc3c(=O)c(C(=O)NCCN4CCCC4)c4n(C)c5ccccc5n4c3n2)CC1` [Compound B-1], the remaining activity at 2.5 µM at Flt3(h) was found to be 100%; on Syk(h) it was 111%; at MLCK(h) it was 94%; on CDK1/cyclinB(h), 93%; on NEK2(h), 106%. In experiment [1], the “effect on c-myc mRNA levels” value is “no measureable effect”.

The record behind these values is patent publication US20070117770A1, “Human ribosomal DNA (rDNA) and ribosomal RNA (rRNA) nucleic acids and uses thereof” (Cylene Pharmaceuticals, Inc., priority 2005, published 2007).
